Experimental data from article PMC8881077 (Journal of Enzyme Inhibition and Medicinal Chemistry, 2022).
Read-outs that look alike come from different tables or passages of the source.

Tests used:
huAChE [1] = biological target: T1, huAChE (Homo sapiens, UniProt P22303); type: biochemical; set-up: AChE from human erythrocytes (Sigma Co.); purchased Sigma Co; host or cells: human erythrocytes; details: for huAChE activity restored: 0.1 × IC50, at 60 min, Figure 2B; for huAChE activity increase when diluted to 0.1 × IC50: Figure 2A, dilution to 0.1 × IC50
[2] = system: TNF-α production in LPS-induced BV-2 cells; test: TNF-α production in BV-2 cells, ELISA; type: cell-based; details: 1.0 μg/mL LPS
Method: Compounds 5f and 7k were selected to test the anti-inflammatory potency by measuring the production of inflammatory mediators TNF-α and NO in LPS-induced BV-2 cells[32]^,[33]. • Cytotoxicity of compounds 5f and 7k on BV-2 cells. Firstly, the cytotoxicity of compounds 5f and 7k were tested using an MTT assay. […] In inhibition of LPS-induced, NO production was tested through the Griess reaction method. […] In addition, to further investigate the effects of compounds 5f and 7k on LPS-induced TNF-α production in BV-2 cells, the enzyme-linked immunosorbent assay (ELISA) was used.
Inhibition of LPS-induced TNF-α production was evaluated with an enzyme-linked immunosorbent assay (ELISA). The methods of BV-2 cells culture, adding different concentrations of tested compounds 5f or 7k (1 μM, 3 μM and 9 μM) (10 μL) and LPS (1.0 μg/mL, 10 μL) and setting blank control group were the same as above in cytotoxicity assay. Then, the supernatant of the cell culture solution (50 μL) was added to a 96-well plate and the release of cytokine TNF-α was measured by ELISA according to the instructions of the ELISA kit.

[3] = Metal-chelating property, UV-visual spectrometry; type: physicochemical; details: for molar ratio at intersection: complex with Cu^2+; for maximum absorption wavelength after adding AlCl3: compound and AlCl3 37.5 μM in methanol; for maximum absorption wavelength after adding CuCl2: compound and CuCl2 37.5 μM in methanol; for maximum absorption after adding FeSO4: compound and FeSO4 37.5 μM in methanol; for maximum absorption after adding ZnCl2: compound and ZnCl2 37.5 μM in methanol
Method: The chelating property of compounds 5f and 7k were determined by UV-visual spectrometry and biometals such as Cu^2+, Zn^2+, Al^3+ and Fe^2+ were applied[19]^,[20]. […] The stoichiometry of the 5f-Cu^2+ complex was determined using the molar ratio method by preparing solutions of compound 5f with increasing amounts of CuCl2 at 386 nm.
Further, the stoichiometry of the 7k-Cu^2+ complex was determined using the molar ratio method at 385 nm.
The metal chelation property was investigated by UV absorption in a Shimadzu UV-2450 spectrophotometer. The detailed procedure referenced our previous work[20]^,[22].

[4] = system: normal human hepatocytes cell line (LO2); test: Hepatoprotective activity on H2O2-induced LO2 cell injury; type: cell-based; details: LO2 cells, 1000 μM H2O2
Method: The anti-AD drug tacrine has been forced to withdraw due to severe hepatotoxicity. Thus, the hepatotoxicity of compounds 5f on normal human hepatocytes cell line (LO2) was evaluated using MTT assay. […] Furthermore, the hepatoprotective activity of compound 5f on H2O2-induced live injury was tested using an MTT assay. […]
• Materials. LO2 cells purchased from Wuhan Punosi Life Technology Co., Ltd. 30% H2O2, Trichloroacetic acid (TCA), SRB, DMEM medium (HyClone), Foetal bovine serum (LNSER, article number: S711-001S), Penicillin streptomycin mixture (double antibiotic) (Solarbio), 0.25% trypsin-EDTA digestive juice (Solarbio), DMSO (Solarbio), Potassium dihydrogen phosphate (Xiyu Science Co., Ltd., CAS: 7778-77-0); Ultra-clean workbench (Wuxi Easy Purification Equipment Co., Ltd., model: SW-CJ-VS2); Carbon dioxide incubator (Esco, model: 2014-88759); […]; • Experiment method. (a) Cell culture: cultured in DMEM medium containing 10% FBS and 1% double-antibody, placed in 37 °C, 5% CO2 constant temperature and humidity incubator, changed every 2 days, subcultured when cells were 90% confluent. (b) Effect of compounds on LO2 proliferation by SRB assay: Discard the culture medium, fix the cells with 10% (m/v) trichloroacetic acid (TCA) 100 μL, and place in a refrigerator at 4 °C for 1 h. The fixing solution was discarded, washed 5 times with distilled water, and dried in an oven. Adding 100 μL SRB solution to each well after drying, and leave it at room temperature for 10-30 min. Discard the supernatant, wash it 5 times with 1% glacial acetic acid water, air dry. Finally, add 100 μL/well of 10 mmol/L Tris-based buffer solution and oscillate on a plate shaker. The OD value was measured at 515 nm using a microplate reader. Cell viability (%) = OD test well/OD blank control well x 100%. (c) Effect of compounds on H2O2-induced LO2 cell injury by SRB assay. […] After treatment with H2O2 for 6h, the survival rate was measured by the SRB method.

huAChE [5] = biological target: T1, huAChE; test: biochemical; type: biochemical; set-up: AChE from 5% rat cortex homogenate or human erythrocytes (Sigma Co.); purchased Sigma Co; host or cells: human erythrocytes; details: for SI: Selectivity Index = IC50 (BuChE)/IC50 (AChE), human enzymes; for IC50: from human erythrocytes, read-out: IC50 ± SD huAChE
Method: (§1) The AChE and BuChE inhibitory activities of the synthesised compounds were evaluated using the Ellman assay with slight modification. AChE from 5% rat cortex homogenate or human erythrocytes (Sigma Co.). BuChE from rat serum or human serum (Sigma Co.).

Aβ1–42 = Aβ1–42 (Homo sapiens, UniProt P05067); test: Cu^2+-induced Aβ1–42 aggregation, ThT fluorescence; type: biochemical; details: tested compounds and Aβ1–42 25 μM
Method: Curcumin was also tested as a referenced compound.
The Thioflavin T-based flurometric assay was employed to test the inhibition potency on self-induced/Cu^2+-induced Aβ1-42 aggregation.

PC12 cells = test: Neuroprotective effect on H2O2-induced PC12 cells injury, MTT assay; type: cell-based; details: 100 μM H2O2, PC12 cells
AChE PAS = AChE PAS (Homo sapiens, UniProt P22303); test: biochemical; type: binding
[6] = biological target: huAChE-induced Aβ1–40 aggregation (Homo sapiens, UniProt P22303); test: huAChE-induced Aβ1–40 aggregation, ThT assay; type: biochemical; details: inhibitor 100 μM, Aβ1–40 230 μM, Aβ1–40/AChE ratio 100/1
ratBuChE = biological target: T2, ratBuChE (Rattus norvegicus, UniProt Q9JKC1); test: ratBuChE inhibition, modified Ellman's method; type: biochemical
T2 construct: BuChE from rat serum or human serum (Sigma Co.); from tissue; host or cells: rat serum
T2 sequence (Q9JKC1 24-597): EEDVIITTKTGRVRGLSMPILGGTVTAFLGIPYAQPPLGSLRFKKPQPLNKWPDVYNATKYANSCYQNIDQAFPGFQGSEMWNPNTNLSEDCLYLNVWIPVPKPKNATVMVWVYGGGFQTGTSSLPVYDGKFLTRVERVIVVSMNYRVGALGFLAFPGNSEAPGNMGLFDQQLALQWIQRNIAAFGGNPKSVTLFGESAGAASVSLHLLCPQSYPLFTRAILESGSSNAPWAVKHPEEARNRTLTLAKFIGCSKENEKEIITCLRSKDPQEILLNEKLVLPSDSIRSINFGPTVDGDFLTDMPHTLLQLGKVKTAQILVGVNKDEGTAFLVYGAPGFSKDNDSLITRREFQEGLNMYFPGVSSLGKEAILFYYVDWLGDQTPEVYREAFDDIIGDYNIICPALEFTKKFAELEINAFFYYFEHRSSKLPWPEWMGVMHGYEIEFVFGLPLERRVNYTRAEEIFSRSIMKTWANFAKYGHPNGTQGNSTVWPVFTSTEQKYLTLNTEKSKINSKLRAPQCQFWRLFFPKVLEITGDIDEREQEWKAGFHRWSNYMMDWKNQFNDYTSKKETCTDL
Method: as §1

Sequence of AChE PAS (P22303 32-614): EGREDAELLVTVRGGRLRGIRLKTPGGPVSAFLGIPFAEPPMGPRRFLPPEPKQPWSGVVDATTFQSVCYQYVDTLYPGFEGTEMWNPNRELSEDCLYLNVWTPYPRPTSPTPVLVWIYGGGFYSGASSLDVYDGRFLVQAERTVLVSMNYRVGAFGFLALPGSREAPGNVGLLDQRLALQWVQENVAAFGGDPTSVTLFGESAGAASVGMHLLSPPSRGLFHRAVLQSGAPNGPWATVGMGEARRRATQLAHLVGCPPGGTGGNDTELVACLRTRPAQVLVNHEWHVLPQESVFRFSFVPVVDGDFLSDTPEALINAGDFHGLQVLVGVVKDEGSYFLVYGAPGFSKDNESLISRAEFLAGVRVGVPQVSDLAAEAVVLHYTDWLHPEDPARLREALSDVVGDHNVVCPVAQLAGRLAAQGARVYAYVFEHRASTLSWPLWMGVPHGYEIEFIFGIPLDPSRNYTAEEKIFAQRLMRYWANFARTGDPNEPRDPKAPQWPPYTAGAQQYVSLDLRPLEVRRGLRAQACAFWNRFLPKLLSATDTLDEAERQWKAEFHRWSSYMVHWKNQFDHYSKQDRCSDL
T1 sequence (P22303 32-617 isoform P22303-2 limits assumed): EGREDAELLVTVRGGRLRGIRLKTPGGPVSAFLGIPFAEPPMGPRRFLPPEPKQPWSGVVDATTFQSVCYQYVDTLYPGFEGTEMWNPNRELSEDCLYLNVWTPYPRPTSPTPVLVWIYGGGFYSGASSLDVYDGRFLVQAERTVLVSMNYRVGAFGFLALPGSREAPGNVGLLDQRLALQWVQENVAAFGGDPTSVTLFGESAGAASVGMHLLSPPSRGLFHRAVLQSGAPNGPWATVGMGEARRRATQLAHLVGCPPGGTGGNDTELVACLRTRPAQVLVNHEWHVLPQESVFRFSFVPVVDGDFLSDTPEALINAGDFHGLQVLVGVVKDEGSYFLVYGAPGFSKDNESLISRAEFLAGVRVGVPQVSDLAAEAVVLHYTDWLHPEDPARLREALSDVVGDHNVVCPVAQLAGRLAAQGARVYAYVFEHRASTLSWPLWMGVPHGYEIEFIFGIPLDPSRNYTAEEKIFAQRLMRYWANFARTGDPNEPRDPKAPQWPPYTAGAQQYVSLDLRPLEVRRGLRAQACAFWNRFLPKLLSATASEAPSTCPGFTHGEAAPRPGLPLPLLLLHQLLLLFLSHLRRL
Sequence of Aβ1–42 (P05067 672-713): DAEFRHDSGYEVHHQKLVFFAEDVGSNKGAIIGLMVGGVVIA
Sequence of huAChE-induced Aβ1–40 aggregation (P22303 32-588 isoform P22303-2): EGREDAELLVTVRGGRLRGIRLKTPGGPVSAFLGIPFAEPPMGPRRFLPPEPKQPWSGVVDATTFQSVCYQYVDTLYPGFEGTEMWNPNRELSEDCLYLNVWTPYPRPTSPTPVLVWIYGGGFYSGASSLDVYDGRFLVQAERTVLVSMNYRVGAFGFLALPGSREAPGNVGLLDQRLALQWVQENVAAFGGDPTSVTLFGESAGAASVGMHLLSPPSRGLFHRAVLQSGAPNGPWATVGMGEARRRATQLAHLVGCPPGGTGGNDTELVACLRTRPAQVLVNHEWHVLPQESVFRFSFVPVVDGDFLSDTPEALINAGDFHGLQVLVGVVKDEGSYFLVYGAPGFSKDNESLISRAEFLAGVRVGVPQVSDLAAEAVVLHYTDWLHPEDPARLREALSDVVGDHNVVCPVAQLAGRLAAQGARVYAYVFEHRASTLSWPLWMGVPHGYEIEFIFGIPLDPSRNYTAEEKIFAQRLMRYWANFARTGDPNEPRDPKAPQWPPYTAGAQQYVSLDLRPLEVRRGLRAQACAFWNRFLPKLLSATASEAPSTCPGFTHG

Molecule	reversibility of huAChE inhibition (huAChE [1])	huAChE activity (% control) (huAChE [1]; 0.1*IC50, diluted)	huAChE activity restored (huAChE [1]) [%]	huAChE activity (% control) (huAChE [1]; 1*IC50, diluted)	huAChE activity (% control) (huAChE [1]; 1*IC50, undiluted)	huAChE activity increase when diluted to 0.1 × IC50 (huAChE [1]) [%]	TNF-α production ([2]; 1 μM) [pg/mL]	TNF-α production ([2]; 3 μM) [pg/mL]	TNF-α production ([2]; 9 μM) [pg/mL]	molar ratio at intersection [3]	maximum absorption wavelength after adding AlCl3 [3]	maximum absorption wavelength after adding CuCl2 [3] [nm]	maximum absorption after adding FeSO4 [3]	maximum absorption after adding ZnCl2 [3]	SI (huAChE [5])	IC50 (huAChE [5]) [µM]	Inhibition of huAChE-induced Aβ1–40 aggregation (%) [6] [%]	other results
CCN(CCCCCOc1cc(O)c2c(c1)OC(c1ccc(O)cc1)CC2=O)Cc1ccccc1 (stereo not drawn) [Compound 5f, 7-((5-(benzyl(ethyl)amino)pentyl)oxy)-5-hydroxy-2–(4-hydroxyphenyl)chroman-4-one]	reversible	55.6	89.8	48.7	47.9	6.9	1130	728	394	1.1	388 nm	386	did not present obvious shift	did not present obvious shift	6.9	0.91 ± 0.02	51.7 ± 0.75	inhibition at 1 µM ([2]; Mus musculus, BV-2, 1 μM, read-out: inhibitory rate of TNF-α production): 33.5%; inhibition at 3 µM ([2]; Mus musculus, BV-2, 3 μM, read-out: inhibitory rate of TNF-α production): 57.2%; inhibition at 9 µM ([2]; Mus musculus, BV-2, 9 μM, read-out: inhibitory rate of TNF-α production): 76.8%; viability at 5 µM ([4]; L02, 5.0 μM): 65.2%; viability at 10 µM ([4]; L02, 10.0 μM): 69.7%; viability at 20 µM ([4]; L02, 20.0 μM): 79.4%; inhibition at 25 µM (Aβ1–42): 73.5 ± 0.25%; viability at 2.5 µM (PC12 cells; Rattus norvegicus, PC-12, compound 2.5 μM, read-out: cell viability): 62.9%; viability at 5 µM (PC12 cells; Rattus norvegicus, PC-12, compound 5.0 μM, read-out: cell viability): 68.2%; viability at 10 µM (PC12 cells; Rattus norvegicus, PC-12, compound 10.0 μM, read-out: cell viability): 73.4%; inhibition at 10 µM (AChE PAS; 10 μM, read-out: Propidium iodide displacement from AChE PAS (% inhibition)): 25.7 ± 1.9%; inhibition at 50 µM (AChE PAS; 50 μM, read-out: Propidium iodide displacement from AChE PAS (% inhibition)): 36.9 ± 3.5%; IC50 (ratBuChE): 16.9 ± 0.27 µM
7-((6-(benzyl(ethyl)amino)hexyl)oxy)-2–(4-((6-(benzyl(ethyl)amino)hexyl)oxy)phenyl)-5-hydroxychroman-4-one [Compound 7k]	reversible	61.2	96.8	53.4	52.6	7.8	1295	915	553	1.1	did not show an obvious change	385	did not show an obvious change	did not show an obvious change	14.4	0.57 ± 0.02	43.4 ± 0.43	inhibitory rate of TNF-α production ([2]; 1 μM): 23.8%; inhibitory rate of TNF-α production ([2]; 3 μM): 46.2%; inhibitory rate of TNF-α production ([2]; 9 μM): 67.5%; Inhibition of Aβ1–42 aggregation, Cu^2+-induced (%) (Aβ1–42): 68.7 ± 0.46%; cell viability (PC12 cells; compound 2.5 μM): 58.3%; cell viability (PC12 cells; compound 5.0 μM): 63.7%; cell viability (PC12 cells; compound 10.0 μM): 69.8%; Propidium iodide displacement from AChE PAS (% inhibition) (AChE PAS; 10 μM): 23.1 ± 1.2%; Propidium iodide displacement from AChE PAS (% inhibition) (AChE PAS; 50 μM): 34.3 ± 2.1%; IC50 (ratBuChE; BuChE from rat serum, read-out: IC50 ± SD ratBChE): 14.8 ± 0.36 µM
